Experimental data reported in paper PMC6792352, “Limited Chemical Structural Diversity Found to Modulate Thyroid Hormone Receptor in the Tox21 Chemical Library” (Environmental Health Perspectives, 2019).
Structures can show the parent of a compound that is named as a salt. Non-standard residues stand in square brackets, D forms with d. Residues, ends and D or L forms follow the SMILES beside them. *: point of attachment. Sta = CC(C)C[C@H](N)[C@@H](O)CC(=O)O; Isovaleryl = CC(C)CC(=O)*

Assay: in vitro
Conditions: rat, gh3-tre-luc cells

SMILES	CC50 at 24 h (AC50 (uM) modified / 1000) [µM]	further results
CC(CC(C#N)(c1ccccc1)c1ccccc1)N(C)C (stereo not shown) [Premethadone]		CC50 at 24 h (AC50 (uM) modified / 1000, Tox21_110001=Tox21_112859, viability, 1 nM T3 present, 24 h): 21.6 µM
Clc1ccccn1 [2-Chloropyridine]	> 90	
CCCC1CCCC(=O)O1 (stereo not shown) [delta-Octanolactone]	> 90	
NS(=O)(=O)c1ccc(Cl)c(S(N)(=O)=O)c1 [Clofenamide]	> 50	
O=NN1CCN(N=O)CC1 [Dinitrosopiperazine]	> 90	
COc1ccccc1N1CCN(CCCC(=O)c2ccc(F)cc2)CC1 [Fluanisone]	> 50	
COC1=CC(=O)O[C@@H](/C=C/c2ccccc2)C1 [Kavain]		CC50 at 24 h (AC50 (uM) modified / 1000, Tox21_110001=Tox21_200907, viability, 1 nM T3 present, 24 h): > 90 µM
C/C=C(C)/C=C/C=C(C)C [2,6-Dimethyl-2,4,6-octatriene]	> 90	
CC(C)(C)c1n[nH]c(=S)n(N)c1=O [4-Amino-6-tert-butyl-3-thioxo-3,4-dihydro-1,2,4-triazin-5(2H)-one]	> 90	
C#CCO [Propargyl alcohol]		CC50 at 24 h (AC50 (uM) modified / 1000, Tox21_110001=Tox21_200976, viability, 1 nM T3 present, 24 h): > 90 µM
CCn1c2ccccc2c2cc(N)ccc21 [3-Amino-9-ethylcarbazole hydrochloride]	> 90	
NC(=O)C1c2ccccc2CCc2ccccc21 [Cyheptamide]	> 50	
CC(=C(CCO)SSCC1CCCO1)N(C=O)Cc1cnc(C)nc1N (stereo in doubt) [Fursultiamine hydrochloride]	> 50	
CC(C)CCCCCOC(=O)c1ccccc1C(=O)OCCCCCC(C)C [Diisooctyl phthalate]	> 90	
NC(=O)NS(=O)(=O)c1ccc(N)cc1 [Sulfacarbamide]	> 50	
CCC(=O)O[C@]1(C(=O)CCl)[C@@H](C)C[C@H]2[C@@H]3C[C@H](F)C4=CC(=O)C=C[C@]4(C)[C@@]3(F)[C@@H](O)C[C@@]21C [Halobetasol propionate]	> 50	
O=C1c2ccccc2S(=O)(=O)N1CCCCN1CCN(c2ncccn2)CC1 [Ipsapirone]	> 50	
CCOP(=S)(OCC)SCSP(=S)(OCC)OCC [Ethion]		CC50 at 24 h (AC50 (uM) modified / 1000, Tox21_110001=Tox21_300175, viability, 1 nM T3 present, 24 h): > 90 µM
CO[C@H]1C[C@@H]2CC[C@@H](C)[C@@](O)(O2)C(=O)C(=O)N2CCCC[C@H]2C(=O)O[C@H]([C@H](C)C[C@@H]2CC[C@@H](OCCO)[C@H](OC)C2)CC(=O)[C@H](C)/C=C(\C)[C@@H](O)[C@@H](OC)C(=O)[C@H](C)C[C@H](C)/C=C/C=C/C=C/1C [Everolimus]	0.00998	
Fc1c(F)c(F)c(Br)c(F)c1F [Bromopentafluorobenzene]	> 90	
CSc1cnccn1 [Pyrazinyl methyl sulfide]	> 90	
CCc1ccc(C=O)cc1 [4-Ethylbenzaldehyde]	> 90	
Cn1cnc2c1c(=O)[nH]c(=O)n2C [Theobromine]	> 40	
CCCCCCCCCCCCCCCCCCO [1-Octadecanol]	> 50	
CCCc1cc(=O)[nH]c(=S)[nH]1 [6-Propyl-2-thiouracil]	> 90	

SMILES	CC50 at 24 h (AC50 (uM) modified / 1000) [µM]	further results
FC(F)(F)C(F)(F)C(F)(F)C(F)(F)C(F)(F)C(F)(F)F [Perflexane]	> 50	
CCCCCCCCCCCCCCCC(=O)O [Hexadecanoic acid]	> 90	
CC(=O)[C@]1(O)Cc2c(O)c3c(c(O)c2[C@@H](O[C@H]2C[C@H](N)[C@H](O)[C@H](C)O2)C1)C(=O)c1ccccc1C3=O [Idarubicin hydrochloride]	0.162	
COP(N)(=O)SC (stereo not shown) [Methamidophos]		CC50 at 24 h (AC50 (uM) modified / 1000, Tox21_110001=Tox21_202250, viability, 1 nM T3 present, 24 h): > 90 µM
C=CC=O [Acrolein]		CC50 at 24 h (AC50 (uM) modified / 1000, Tox21_110001=Tox21_200984, viability, 1 nM T3 present, 24 h): > 90 µM
CC(C(=O)O)c1cccc(C(=O)c2ccccc2)c1 (stereo not shown) [Ketoprofen]	> 90	
Clc1ccc2c(c1)C(c1ccccc1)=NCc1nncn1-2 [Estazolam]	> 50	
CCOC(=O)CC(C)C [Ethyl isovalerate]	> 90	
CC(=O)OC(OC(C)=O)c1ccc([N+](=O)[O-])o1 [5-Nitro-2-furanmethanediol diacetate]	14	
C#C[C@]1(O)CC[C@H]2[C@@H]3CCC4=CC(=O)CC[C@@H]4[C@H]3CC[C@@]21CC [Levonorgestrel]	> 90	
O=C(N=NC(=O)OCc1ccccc1)OCc1ccccc1 [Dibenzyl diazene-1,2-dicarboxylate]	> 90	
CCOP(=S)(OCC)SCSc1ccc(Cl)cc1 [Carbophenothion]		CC50 at 24 h (AC50 (uM) modified / 1000, Tox21_110001=Tox21_113359, viability, 1 nM T3 present, 24 h): > 50 µM; CC50 at 24 h (AC50 (uM) modified / 1000, Tox21_110001=Tox21_301426, viability, 1 nM T3 present, 24 h): > 90 µM
OCc1ccccc1 [Benzyl alcohol]	> 90	
CCO[Si](CCCNC(N)=O)(OCC)OCC [1-[3-(Triethoxysilyl)propyl]urea]	> 90	
OC[C@H]1O[C@H](O[C@H]2O[C@H](CO)[C@@H](O)[C@H](O)[C@H]2O)[C@H](O)[C@@H](O)[C@@H]1O [Trehalose dihydrate]	> 90	
NC(=O)O [Ammonium carbamate]		CC50 at 24 h (AC50 (uM) modified / 1000, Tox21_110001=Tox21_302509, viability, 1 nM T3 present, 24 h): > 90 µM
COc1ccc(C(=O)N2CCN(CC(=O)N3CCOCC3)CC2)cc1 [Molracetam]	> 50	
O=C(O)[C@@H]1CCCN1 [Proline]	> 50	
CCC(=O)O[C@H]1[C@@H](N2CCCCC2)C[C@H]2[C@@H]3CC[C@H]4C[C@H](OC(C)=O)[C@@H](N5CCCCC5)C[C@]4(C)[C@H]3CC[C@@]21C [(2beta,3alpha,5alpha,16beta,17beta)-3-Acetoxy-2,16-di(1-piperidinyl)androstan-17-yl propionate]	> 50	
CC[C@@H](CO)NC(=O)[C@@H]1C=C2c3cccc4c3c(cn4C)C[C@H]2N(C)C1 [Methysergide]	> 50	
NC(=O)NNC(N)=O [Biurea]	> 90	
CC(C)CC(=O)OCc1ccccc1 [Benzyl 3-methylbutanoate]	> 90	
CC(C)CC(=O)N[C@H](C(=O)N[C@H](C(=O)N[C@@H](CC(C)C)[C@@H](O)CC(=O)N[C@@H](C)C(=O)N[C@@H](CC(C)C)[C@@H](O)CC(=O)O)C(C)C)C(C)C [Pepstatin] (Isovaleryl-VV[Sta]A[Sta]-OH)	> 50	
CC(C)(Cl)Cl [2,2-Dichloropropane]	> 90	
CC(S)C(C)S (stereo not shown) [2,3-Butanedithiol]	> 100	

SMILES	CC50 at 24 h (AC50 (uM) modified / 1000) [µM]	further results
CC1(C)[C@H](/C=C(\Cl)C(F)(F)F)[C@@H]1C(=O)O[C@@H](C#N)c1cccc(Oc2ccccc2)c1 [?-Cyhalothrin]	> 80	
O=C(NC(=O)c1c(F)cccc1F)Nc1ccc(Oc2ccc(C(F)(F)F)cc2Cl)cc1F [Flufenoxuron]	34.6	
CCOC(=O)CC(CC(=O)OCC)(OC(C)=O)C(=O)OCC [Acetyltriethyl citrate]	> 90	
CCO[C@@H](Cc1ccc(OCCc2ccc(OS(C)(=O)=O)cc2)cc1)C(=O)O [Tesaglitazar]	> 50	
Cc1ncc(COP(=O)(O)O)c(CN)c1O [Pyridoxamine phosphate]	> 50	
CN1CCCC(n2nc(Cc3ccc(Cl)cc3)c3ccccc3c2=O)CC1 (stereo not shown) [Azelastine hydrochloride]	12.6	
C=CC(=O)NCNC(=O)C=C [N,N'-Methylenebisacrylamide]	> 90	
c1ccc2cc3c4ccccc4c4ccccc4c3cc2c1 [Dibenz[a,c]anthracene]	> 90	
Cc1cc(C)cc(C(=O)OC2C[C@H]3CC[C@@H](C2)N3C)c1 (stereo partly shown)	22.4	
CCCC(=O)O[C@]1(C(=O)COC(C)=O)CC[C@H]2[C@@H]3C[C@H](F)C4=CC(=O)C=C[C@]4(C)[C@@]3(F)[C@@H](O)C[C@@]21C [Difluprednate]	> 50	
Fc1ccc(C(c2ccc(F)cc2)N2CCN(C/C=C/c3ccccc3)CC2)cc1 [Flunarizine]	12.3	
Clc1cccc(Cl)c1 [1,3-Dichlorobenzene]	> 90	
CCCCCCCCc1ccc(S(=O)(=O)O)cc1 [Sodium 4-octylbenzenesulfonate]	> 90	
CN(C)C(=O)COC(=O)Cc1ccc(OC(=O)c2ccc(NC(=N)N)cc2)cc1 [Camostat mesylate]	> 50	
N[C@@H]1[C@H]2CN(c3nc4c(cc3F)c(=O)c(C(=O)O)cn4-c3ccc(F)cc3F)C[C@@H]12 [Trovafloxacin mesylate]	20.9	
COc1ccc(O)cc1 [4-Methoxyphenol]	> 90	
Nc1c2ccccc2nc2ccccc12 [9-Aminoacridine, monohydrochloride, monohydrate]	> 90	
CC(C)OS(C)(=O)=O [Isopropyl methanesulfonate]		CC50 at 24 h (AC50 (uM) modified / 1000, Tox21_110001=Tox21_200855, viability, 1 nM T3 present, 24 h): > 90 µM
COC(=O)C(C)Oc1ccc(Oc2ncc(C(F)(F)F)cc2Cl)cc1 (stereo not shown) [Haloxyfop-methyl]	> 90	
Clc1ccc(-c2ccc(Cl)c(Cl)c2Cl)c(Cl)c1Cl [Aroclor 1260]	> 90	
CSC1=N[C@@](C)(c2ccccc2)C(=O)N1Nc1ccccc1 [Fenamidone]	> 90	
COc1c2c(cc3c1OCO3)CCN(C)C2 [Hydrocotarnine hydrobromide]	> 20	
COC(=O)c1cncn1C(C)c1ccccc1 (stereo not shown) [Metomidate hydrochloride]		CC50 at 24 h (AC50 (uM) modified / 1000, Tox21_110001=Tox21_110988, viability, 1 nM T3 present, 24 h): > 50 µM
Cc1cc(CCN2CCN(c3nsc4ccccc34)CC2)cc2c1NC(=O)CC2(C)C [PD 0343701]	46.9	
CN(C)CCc1c[nH]c2ccc(Cn3cncn3)cc12 [Rizatriptan]	> 50	
